Laboratory results as given in patent US11965038B2, “Pharmaceutical composition comprising antibody binding specifically to lysyl-tRNA synthetase N-terminus as effective ingredient for preventing or treating immune cell migration-related disease” (Zymedi Co., Ltd., priority 2017, dated 2024).

Columns and labels:
[1] = test system: migration and invasion of immune cells; details: ear skin wound models, liver ischemia-reperfusion injury models; from Korean applications 10-2017-0076718 and 10-2018-0069146; cited from earlier work
RAW 264.7 cells = assay: Transwell migration assay with extracellular matrix proteins and laminin subtypes; assay type: cell-based
Procedure: In the extracellular matrix (ECM) that make up the blood vessels, it was identified which promotes the migration and invasion of monocytes/macrophages. Transwell migration assay was performed using collagen (collagen, Col), fibronectin (FN) and laminin (LN) as extracellular matrix. The specific experimental method is as follows. After transwells (Corning, #3421-5 mm) were coated with gelatin (0.5 mg/ml), RAW 264.7 cells (1×10^5 cells/well) were seeded into the top chamber. Fibronectin or Collagen was placed in the bottom chamber. Serum Free DMEM (500 μl) containing 10 μg/ml of Laminin (laminin mixture, Biolamina), Fibronectin or Collagen, respectively, was placed in the bottom chamber. After 24 hours, the cells were treated with 70% methanol for 30 minutes and fixed, and then stained with 50% Hematoxylin for 30 minutes. After removing non-migrating cells from the top of the membrane with a cotton swab, the membrane was taken and mounted on the slide. The migrating cells on the underside of the membrane were observed and quantified under a high magnification microscope.
The effects of laminin subtypes on immune cell migration and invasion were evaluated. A transwell cell migration assay was performed in the same manner as in the Example 1 using LN111, LN211, LN221, LN411, LN421, LN511, and LN521 at 1 μg/ml as various laminin subtype proteins (purchased from Biolamina). […]

KRS = assay: Western blotting of KRS in cytosol and membrane fractions after LN421 treatment; assay type: cell-based; details: 1 μg/ml LN421, 0 h, 12 h, 24 h
Procedure: After seeding RAW 264.7 cells (2×10^6 cells) in 100 pie plate and incubating for 18 hr, the serum free-DMEM media was treated with 1 μg/ml LN421 and the cells were harvested at 0 h, 12 h, and 24 h. RAW 264.7 cell proteins were separated into cytosol and membrane fractions using the ProteoExtract® Subcellular Proteome Extraction Kit (Calbiotech, cat #539790). The obtained protein was subjected to electrophoresis, transferred to PVDF membrane (Millipore) and blocked with 3% skim milk. KRS was then detected by the western blotting. Specifically, KRS polyclonal antibody (rabbit, Neomics, Co. Ltd. #NMS-01-0005) was added to bind for 1 hour. Unbound antibody was removed and then anti-rabbit secondary antibody (Thermo Fisher Scientific, #31460) was added. After reacting with the secondary antibody, the film was developed in the dark room using ECL reagent as a substrate. The detected bands were compared to standard molecular markers to identify the bands corresponding to the size of the KRS. Antibodies against Na+/K+ATPase (Abcam, ab76020) and tubulin (Santa cruz SC-5286) were used to identify plasma membrane and cytosol markers, respectively.

[2] = test system: pulmonary arterial hypertension (PAH) models; assay: Echocardiography in MCT-induced PAH model; assay type: in vivo, SD rats; details: PAH rats, MCT alone: three animals
Description: (§1) To induce PAH in 7-week-old SD rats (Oriental Bio), 60 mpk of MCT (monocrotaline) were subcutaneously injected.

[3] = Body weight change in MCT-induced PAH model; assay type: in vivo, SD rats; details: sildenafil 25 mpk, n = 5
Description: as §1

In the case of `COc1ccc(CCN(Cc2ccc(C(=O)O)cc2)c2nc3cccc(F)c3s2)cc1` [BC-KI-00053, 4-({(7-fluorobenzo [d]thiazol-2-yl) [2-(4-methoxyphenyl)ethyl]amino}methyl) benzoic acid], the “migration and invasion of immune cells” value [1] is given as “inhibited”.

For “LN421: laminin subtype α4β2γ1, purchased from Biolamina”, the “migration of monocytes/macrophages by laminin subtype” value (RAW 264.7 cells; laminin subtypes at 1 μg/ml) was “specifically move in response” and the “amount of KRS detected in the cell membrane region” value (KRS) was “increased”.

With `CCCc1nn(C)c2c(=O)[nH]c(-c3cc(S(=O)(=O)N4CCN(C)CC4)ccc3OCC)nc12` [Sildenafil, sildenafil] the “D-shaped left ventricle finding indicating pressure overload in the right ventricle” value [2] was “three animals”, the “Relative change (weight)” value ([3]; MCT + Mock IgG 48.8 ± 7.8) was 49.8 ± 10.5% and the “Absolute change (weight)” value ([3]; MCT + Mock IgG 101.4 ± 14.2) was 104.1 ± 26.4 g.

With laminin the migration of monocytes/macrophages (RAW 264.7 cells; collagen, fibronectin or laminin mixture 10 μg/ml in bottom chamber, 24 hours) was “most strongly promotes”.
